The target of one experiment is human orexin 1 receptor (Homo sapiens, UniProt O43613). Put plainly: Human orexin 1 receptor radioligand binding. The following applies: human orexin 1 receptor; averages of 2-20 runs; read-out: hOX1 Ki. An outline of the steps: (§1)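 Ki values derive from one-site competition IC50s corrected with the radioligand's predetermined Kd, triplicates per run, averaged over 2-20 runs. Cell homogenates (rat or human OX1R) compete against [^3H]-thiazolyl-oxadiazolyl-pyrrolidine methanone in PBS; 10 μM almorexant sets nonspecific binding; scintillation counting after washing.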

Another experiment concerns the target human orexin 2 receptor (Homo sapiens (Human), UniProt O43614). Put plainly: Human orexin 2 receptor radioligand binding. The conditions noted are these: human orexin 2 receptor; averages of 2-20 runs; read-out: hOX2 Ki. In outline: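 Ki derived from one-site competition IC50 using predetermined Kd of [3H]-EMPA, triplicate points, 2-20 runs averaged. Binding done on homogenized HEK293 cells stably expressing human orexin 2 receptor, DMSO ≤0.1%, with 10 μM almorexant defining nonspecific binding; filtered, washed, scintillation counted.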

For another experiment, the target named is rat orexin 1 receptor (Rattus norvegicus, UniProt P56718). Put plainly: Rat orexin 1 receptor radioligand binding. The following applies: rat orexin 1 receptor; averages of 2-20 runs; read-out: rOX1 Ki. An outline of the steps:
as §1

Chain of human orexin 2 receptor (O43614 whole entry): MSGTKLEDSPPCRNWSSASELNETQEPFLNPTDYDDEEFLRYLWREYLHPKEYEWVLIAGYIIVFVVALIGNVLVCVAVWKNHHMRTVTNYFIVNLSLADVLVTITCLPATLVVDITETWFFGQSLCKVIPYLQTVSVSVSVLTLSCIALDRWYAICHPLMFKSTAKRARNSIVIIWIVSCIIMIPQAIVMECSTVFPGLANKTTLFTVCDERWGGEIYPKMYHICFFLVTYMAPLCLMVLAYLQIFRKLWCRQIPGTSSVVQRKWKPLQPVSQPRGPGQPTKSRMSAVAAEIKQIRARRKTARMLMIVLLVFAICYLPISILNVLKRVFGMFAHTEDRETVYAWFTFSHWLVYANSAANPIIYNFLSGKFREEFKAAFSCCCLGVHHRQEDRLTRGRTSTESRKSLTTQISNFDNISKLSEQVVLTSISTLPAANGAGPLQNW

As to `O=C(c1cccc(F)c1-c1ncc(F)cn1)N1C[C@H]2C[C@@H](Oc3ccc(Cl)cn3)[C@@H]1C2` [Example 117, ((1S,4R,6R)-6-((5-chloropyridin-2-yl)oxy)-2-azabicyclo[2.2.1]heptan-2-yl)(3-fluoro-2-(5-fluoropyrimidin-2-yl)phenyl)methanone], the Ki was 28 nM at human orexin 1 receptor, 1600 nM on human orexin 2 receptor and 16 nM on rat orexin 1 receptor.
On the same counts, the results for `O=C(c1cccc(F)c1-c1ncccn1)N1C[C@H]2C[C@@H](Oc3cccc(C(F)(F)F)n3)[C@@H]1C2` [Example 94, (3-fluoro-2-(pyrimidin-2-yl)phenyl)((1S,4R,6R)-6-((6-(trifluoromethyl)pyridin-2-yl)oxy)-2-azabicyclo[2.2.1]heptan-2-yl)methanone] are 30 nM, 848 nM and 35 nM.
For `Cc1ccc(-n2nccn2)c(C(=O)N2C[C@H]3C[C@@H](Nc4ncc(C(F)(F)F)cc4F)[C@@H]2C3)n1` [Example 178, ((1S,4S,6R)-6-((3-fluoro-5-(trifluoromethyl)pyridin-2-yl)amino)-2-azabicyclo[2.2.1]heptan-2-yl)(6-methyl-3-(2H-1,2,3-triazol-2-yl)pyridin-2-yl)methanone], in that order: 8 nM, 112 nM and 6 nM.
Turning to `O=C(c1ccccc1-c1ncc(F)cn1)N1C[C@H]2C[C@@H](Nc3ncc(C(F)(F)F)cc3F)[C@@H]1C2` [Example 180, ((1S,4S,6R)-6-((3-fluoro-5-(trifluoromethyl)pyridin-2-yl)amino)-2-azabicyclo[2.2.1]heptan-2-yl)(2-(5-fluoropyrimidin-2-yl)phenyl)methanone], the Ki is 5 nM on human orexin 1 receptor, 380 nM at human orexin 2 receptor and 6 nM on rat orexin 1 receptor.
As to `Cc1cnc(C(=O)N2C[C@@H]3CC[C@H]2[C@H](Oc2cnc(C(F)(F)F)cn2)C3)c(-c2ncccn2)c1` [Example 282, (5-methyl-3-(pyrimidin-2-yl)pyridin-2-yl)((1S,4R,6R)-6-((5-(trifluoromethyl)pyrazin-2-yl)oxy)-2-azabicyclo[2.2.2]octan-2-yl)methanone], the Ki was 65 nM on human orexin 1 receptor, more than 10000 nM on human orexin 2 receptor and 81 nM at rat orexin 1 receptor.
`O=C(c1ccccc1-n1nccn1)N1C[C@H]2C[C@@H](Oc3ccc4cccnc4n3)[C@@H]1C2` [Example 287, ((1S,4R,6R)-6-((1,8-naphthyridin-2-yl)oxy)-2-azabicyclo[2.2.1]heptan-2-yl)(2-(2H-1,2,3-triazol-2-yl)phenyl)methanone]: the Ki on human orexin 1 receptor turned out to be 226 nM; at human orexin 2 receptor, 2700 nM; on rat orexin 1 receptor, 155 nM.
On the same counts, the results for `Cc1ccc(-n2nccn2)c(C(=O)N2C[C@H]3C[C@@H](Nc4nc5ccccc5o4)[C@@H]2C3)n1` [Example 181, ((1S,4S,6R)-6-(benzo[d]oxazol-2-ylamino)-2-azabicyclo[2.2.1]heptan-2-yl)(6-methyl-3-(2H-1,2,3-triazol-2-yl)pyridin-2-yl)methanone] are 8 nM, 163 nM and 5 nM.
Consider `Cc1cnc(N[C@@H]2C[C@H]3C[C@@H]2N(C(=O)c2cccc(F)c2-n2nccn2)C3)cn1` [Example 217, (3-fluoro-2-(2H-1,2,3-triazol-2-yl)phenyl)((1S,4S,6R)-6-((5-methylpyrazin-2-yl)amino)-2-azabicyclo[2.2.1]heptan-2-yl)methanone], for which the inhibition constant (Ki) at human orexin 1 receptor was 29 nM; on human orexin 2 receptor, 390 nM; at rat orexin 1 receptor, 12 nM.
`CN(c1ccc(C(F)(F)F)cn1)[C@@H]1C[C@H]2C[C@@H]1N(C(=O)c1cc(F)ccc1-c1ncccn1)C2` [Example 158, (5-fluoro-2-(pyrimidin-2-yl)phenyl)((1S,4S,6R)-6-(methyl(5-(trifluoromethyl)pyridin-2-yl)amino)-2-azabicyclo[2.2.1]heptan-2-yl)methanone]: the Ki turned out to be 2 nM on human orexin 1 receptor, 340 nM on human orexin 2 receptor and 5 nM at rat orexin 1 receptor.
On the same counts, the results for `Cc1ccc(C(=O)N2C[C@H]3C[C@@H](Nc4ccc(C(F)(F)F)cn4)[C@@H]2C3)c(-n2nccn2)n1` [Example 143, (6-methyl-2-(2H-1,2,3-triazol-2-yl)pyridin-3-yl)((1S,4S,6R)-6-((5-(trifluoromethyl)pyridin-2-yl)amino)-2-azabicyclo[2.2.1]heptan-2-yl)methanone] are 34 nM, 7300 nM and 24 nM.
Regarding `CN(c1ccc(C(F)(F)F)cn1)[C@@H]1C[C@H]2C[C@@H]1N(C(=O)c1cccc(F)c1-n1nccn1)C2` [Example 154, (3-fluoro-2-(2H-1,2,3-triazol-2-yl)phenyl)((1S,4S,6R)-6-(methyl(5-(trifluoromethyl)pyridin-2-yl)amino)-2-azabicyclo[2.2.1]heptan-2-yl)methanone], the Ki on human orexin 1 receptor worked out at 6 nM; on human orexin 2 receptor, 329 nM; on rat orexin 1 receptor, 4 nM.
Take `O=C(c1ccc(F)cc1-n1nccn1)N1C[C@H]2C[C@@H](Nc3cnc(C(F)(F)F)cn3)[C@@H]1C2` [Example 193, (4-fluoro-2-(2H-1,2,3-triazol-2-yl)phenyl)((1S,4S,6R)-6-((5-(trifluoromethyl)pyrazin-2-yl)amino)-2-azabicyclo[2.2.1]heptan-2-yl)methanone]: the Ki at human orexin 1 receptor was 65 nM; at human orexin 2 receptor, 2000 nM; at rat orexin 1 receptor, 40 nM.
`CN(c1ccc(C(F)(F)F)cn1)[C@@H]1C[C@H]2C[C@@H]1N(C(=O)c1cc(F)ccc1-n1nccn1)C2` [Example 155, (5-fluoro-2-(2H-1,2,3-triazol-2-yl)phenyl)((1S,4S,6R)-6-(methyl(5-(trifluoromethyl)pyridin-2-yl)amino)-2-azabicyclo[2.2.1]heptan-2-yl)methanone]: the Ki was 3 nM on human orexin 1 receptor, 303 nM at human orexin 2 receptor and 5 nM on rat orexin 1 receptor.
With `O=C(c1ccc(F)cc1-n1nccn1)N1C[C@H]2C[C@@H](Nc3ccc(C(F)(F)F)cn3)[C@@H]1C2` [Example 145, (4-fluoro-2-(2H-1,2,3-triazol-2-yl)phenyl)((1S,4S,6R)-6-((5-(trifluoromethyl)pyridin-2-yl)amino)-2-azabicyclo[2.2.1]heptan-2-yl)methanone], the figures for the Ki on human orexin 1 receptor, at human orexin 2 receptor and at rat orexin 1 receptor were 7 nM, 934 nM and 17 nM, respectively.
Consider `COc1ccc(C(=O)N2C[C@H]3C[C@@H](Oc4ccc(C(F)(F)F)cn4)[C@@H]2C3)c(-c2ncccn2)c1` [Example 295], for which the Ki was determined as 34 nM at human orexin 1 receptor, 5800 nM at human orexin 2 receptor and 19 nM on rat orexin 1 receptor.
As for `O=C(c1c(F)cccc1-c1ncccn1)N1C[C@H]2C[C@@H](Nc3ccc(Br)cn3)[C@@H]1C2` [Example 168, ((1S,4S,6R)-6-((5-bromopyridin-2-yl)amino)-2-azabicyclo[2.2.1]heptan-2-yl)(2-fluoro-6-(pyrimidin-2-yl)phenyl)methanone], the Ki at human orexin 1 receptor is 4 nM; at human orexin 2 receptor, 351 nM; at rat orexin 1 receptor, 2 nM.
In the case of `CN(c1ccc(C(F)(F)F)cn1)[C@@H]1C[C@H]2C[C@@H]1N(C(=O)c1ccccc1-n1nccn1)C2` [Example 153, (2-(2H-1,2,3-triazol-2-yl)phenyl)((1S,4S,6R)-6-(methyl(5-(trifluoromethyl)pyridin-2-yl)amino)-2-azabicyclo[2.2.1]heptan-2-yl)methanone], the Ki on human orexin 1 receptor was 3 nM; at human orexin 2 receptor, 342 nM; on rat orexin 1 receptor, 3 nM.
`O=C(c1c(F)cccc1-c1ncccn1)N1C[C@H]2C[C@@H](Oc3cnc(C(F)(F)F)cn3)[C@@H]1C2` [Example 129, (2-fluoro-6-(pyrimidin-2-yl)phenyl)((1S,4R,6R)-6-((5-(trifluoromethyl)pyrazin-2-yl)oxy)-2-azabicyclo[2.2.1]heptan-2-yl)methanone]: the values for the Ki at human orexin 1 receptor, at human orexin 2 receptor and at rat orexin 1 receptor were 47 nM, 4400 nM and 53 nM, respectively.
On the same counts, the results for `Cc1ccc(-n2nccn2)c(C(=O)N2C[C@@H]3CC[C@H]2[C@H](Oc2cnc(C(F)(F)F)cn2)C3)n1` [Example 77, (6-methyl-3-(2H-1,2,3-triazol-2-yl)pyridin-2-yl)((1S,4R,6R)-6-((5-(trifluoromethyl)pyrazin-2-yl)oxy)-2-azabicyclo[2.2.2]octan-2-yl)methanone] are 13 nM, 1700 nM and 9 nM.
For the compound `Cc1ccc(C(=O)N2C[C@H]3C[C@@H](Oc4ccc(Br)cn4)[C@@H]2C3)c(-n2nccn2)n1` [Example 105, ((1S,4R,6R)-6-((5-bromopyridin-2-yl)oxy)-2-azabicyclo[2.2.1]heptan-2-yl)(6-methyl-2-(2H-1,2,3-triazol-2-yl)pyridin-3-yl)methanone], the Ki on human orexin 1 receptor was 337 nM; on human orexin 2 receptor, more than 10000 nM; at rat orexin 1 receptor, 119 nM.
On the same counts, the results for `Cc1noc(-c2cc(F)ccc2C(=O)N2C[C@H]3C[C@@H](Nc4ccc(C(F)(F)F)cn4)[C@@H]2C3)n1` [Example 152, (4-fluoro-2-(3-methyl-1,2,4-oxadiazol-5-yl)phenyl)((1S,4S,6R)-6-((5-(trifluoromethyl)pyridin-2-yl)amino)-2-azabicyclo[2.2.1]heptan-2-yl)methanone] are 16 nM, 1600 nM and 30 nM.
Consider `Cc1ccc(-c2ncccn2)c(C(=O)N2C[C@H]3C[C@@H](Oc4ccc(C(F)(F)F)cn4)[C@@H]2C3)n1` [Example 92, (6-methyl-3-(pyrimidin-2-yl)pyridin-2-yl)((1S,4R,6R)-6-((5-(trifluoromethyl)pyridin-2-yl)oxy)-2-azabicyclo[2.2.1]heptan-2-yl)methanone], for which the Ki worked out at 19 nM on human orexin 1 receptor, 362 nM at human orexin 2 receptor and 13 nM at rat orexin 1 receptor.

One may read the Ki as a dissociation constant, usually derived from enzyme kinetics or from competition with a known ligand.

The record behind these values is US9611277B2 (Janssen Pharmaceutica NV, priority 2013, dated 2017).
